{"source": "patent US11237156B2", "about": "“Method and composition for detection of peptide cyclization using protein tags” (Roche Sequencing Solutions, Inc., priority 2016, dated 2022)", "key": {"[1]": {"system": "anti-Myc antibody", "assay": "Myc sequence maturation binding assay (single substitutions, signal intensity)", "text": "A fragmented protein tag was designed to be specific for the anti-Myc antibody near the N-terminus and C-terminus of the peptide tag, while having low specificity in the middle of the sequence to assist with attachment to a microarray surface through an amino acid side chain. It is to be understood that in some embodiments the amino acid attached to the microarray surface can be near either end of the peptide tag and not necessary closer to the middle of the peptide tag. […] A maturation of the Myc (EQKLISEEDLG (SEQ ID NO: 233)) tag was performed with the tag in the linear form. Each amino acid in the 11 mer peptide was substituted with each of the remaining 19 amino acids. As further described below, the process was repeated until the desired specificity at each position was achieved.\nReferring to FIG. 29, the initial Myc sequence (EQKLISEEDLG (SEQ ID NO: 233)) was modified at positions 1-11 and signal intensity (y-axis) was measured."}, "[2]": {"biological_target": "streptavidin-Cy5 (Streptomyces avidinii, UniProt P22629)", "sequence (P22629 25-183)": "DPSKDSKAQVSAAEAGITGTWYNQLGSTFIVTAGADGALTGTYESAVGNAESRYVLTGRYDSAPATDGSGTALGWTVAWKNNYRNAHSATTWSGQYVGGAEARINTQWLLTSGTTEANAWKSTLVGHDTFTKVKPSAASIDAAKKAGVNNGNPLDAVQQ", "assay": "Streptavidin-Cy5 binding to cyclic/linear peptide microarray (fluorescence)", "settings": "for cyclic fluorescent intensity: cyclic subarray", "method": "Slides were bound with […] streptavidin-Cy5 in 30 mL binding buffer for 30 minutes at room temperature. Binding buffer contained 1% alkali soluble casein and 0.05% tween-20 in 1×TBS, pH 7.4. After 30 minutes, slides were washed twice in 1×TBS buffer for 1 minute, water for 30 seconds, and spun to dryness.\nCy5 fluorescence intensity of the arrays was measured with MS200 scanner (Roche NimbleGen) at resolution 2 um, wavelength 635 nm, gain 25% and laser intensity 100%. Cy5 signal intensities were extracted using Image Extraction Software (Roche NimbleGen). Data pre-processing, normalization and statistical tests were done in R. Data visualization and analysis were performed with Spotfire 6.5.0 (Tibco, Boston, Mass.) software platform."}, "[3]": {"system": "anti-FLAG antibody", "assay": "FLAG-based sequence maturation binding assay (single substitutions, signal intensity)", "settings": "for signal intensity after single mutation of the precursor sequence: linear tag on microarray, each position substituted with remaining 19 natural amino acids", "method": "A fragmented peptide tag was designed to be specific for the anti-FLAG antibody near the N-terminus and C-terminus of the peptide tag, while having low specificity in the middle of the sequence to assist with attachment to a microarray surface through an amino acid side chain. […] A maturation of the FLAG (GDYKDDDDKGG (SEQ ID NO: 232)) tag was performed with the tag in linear form. Each amino acid in the 11 mer peptide was individually substituted with each of the remaining 19 amino acids. As further described below, the process was repeated with modified sequences until the desired specificity at each position was achieved.\nReferring to FIG. 25, the initial FLAG sequence (GDYKDDDDKGG (SEQ ID NO: 232)) was modified at each of positions 1-11 individually with each of the remaining 19 natural amino acids, and signal intensity (y-axis) was measured."}, "[4]": {"system": "Cy5 anti-Myc mouse mAB", "assay": "Cyclization tag assay, anti-Myc binding to peptide microarray", "settings": "cyclization tag compared with fragmented control", "text": "(§1) With the matured linear protein tags at hand, the linear peptides were formed on a microarray where the tags were fragmented across the N- and C-terminus of the peptide such that upon cyclization, the complete protein tag is formed. The peptides were split around the low specificity position identified according to Examples 2 and 4 (position 6, for both tags), and that position was substituted with allyl-E (see FIG. 1). A flexible linker (Z) was inserted between the two peptide tag fragments to increase flexibility. Z was a 3:1 mixture of Gly:Ser. The linear peptide sequences are shown in Table 1 for the FLAG- and Myc-based sequenced in the row titled “Cyclization tag.” In addition to the cyclization tags, two controls were compared to each tag. The matured linear sequences identified according to Examples 2 and 4 (shown in Table 1 in the row titled “Linear control”) were formed on the microarray and tested as positive controls. […]\n(§2) Cy3 and Cy5 fluorescence intensity of the arrays was measured with MS200 scanner (Roche NimbleGen) at resolution 2 um, wavelength 532 nm or 635 nm, gain 25% and laser intensity 100%. […]"}, "[5]": {"system": "Cy3 anti-FLAG mouse mAB", "assay": "Cyclization tag assay, anti-FLAG binding to peptide microarray", "settings": "cyclization tag compared with fragmented control", "text": "as §1, §2"}, "[6]": {"settings": "single substitution scan of the matured tag"}, "[7]": {"settings": "extension of HPQ-specific design, all J combinations of JXXHPQXXJU"}}, "note": "No end group written: not given here.", "data": [{"substance": "EQKLISEEDWG [L10W-Myc tag]", "values": [{"measurement": "signal intensity after single mutation of the precursor sequence", "setting": "[1]; linear tag on microarray, positions 1-11 modified", "result": "strongest increase in signal intensity"}, {"measurement": "specificity by sequence position for the anti-Myc antibody", "setting": "[1]; [6]", "result": "strong specificity on the N-terminus (position 1-5) and moderate specificity on the C-terminus"}]}, {"substance": "QNDHPQNGGU (cyclo(QNDHPQNGGE); also: Glu10 surface-linked) [cyclic QNDHPQNGGU]", "values": [{"measurement": "log fold change (log FC) between cyclic and linear fluorescent intensity", "setting": "[2]; extension of HPQ-specific design, JXXHPQXXJU", "result": "high log FC"}, {"measurement": "cyclic fluorescent intensity", "setting": "[2]; [7]", "result": "high cyclic intensity"}]}, {"substance": "WDYKDFDQKGG [G1W, D6F, D8Q-FLAG tag, matured FLAG tag, position 8 mutated to glutamine]", "values": [{"measurement": "specificity by sequence position for the anti-FLAG antibody", "setting": "[3]; [6]", "result": "specificity for the anti-FLAG antibody on the N-terminus (position 1-4) and the C-terminus (position 7-8)"}]}, {"substance": "LYDHPQNGGU (cyclo(LYDHPQNGGE); also: Glu10 surface-linked) [cylic LYDHPQNGGU]", "values": [{"measurement": "cyclic fluorescent intensity", "setting": "[2]; [7]", "result": "highest cyclic intensity"}]}, {"substance": "WDYKDDDDKGG [G1W-FLAG tag]", "values": [{"measurement": "signal intensity after single mutation of the precursor sequence", "setting": "[3]", "result": "strongest increase in signal intensity"}]}, {"substance": "NQpWU [cylic NQpWU]", "values": [{"measurement": "cyclic fluorescent intensity", "setting": "[2]; peptide library of format XXXXU", "result": "highest cyclic fluorescent intensity"}]}, {"substance": "EEDWGZZZZEQKLI{allyl-E} (EEDWGXXXXEQKLIE; not fully specified (residue 15); printed as EEDWGZZZZEQKLI{allyl-E}; also: X6-X9: Gly or Ser mixture) [Myc cyclization tag, fragmented Myc-based tag on microarray, Z = 3:1 mixture of Gly:Ser, cyclized via allyl-E]", "values": [{"measurement": "median fluorescence", "setting": "[4]", "result": "higher than that of the fragmented control peptides"}]}, {"substance": "WDYKDFDDKGG [G1W, D6F-FLAG tag, G1W-FLAG tag with position 6 mutated to phenylalanine]", "values": [{"measurement": "signal intensity after single mutation of the precursor sequence", "setting": "[3]", "result": "strongest increase in signal intensity"}]}, {"substance": "DQKGGZZZZWDYKD{allyl-E} (DQKGGXXXXWDYKDE; not fully specified (residue 15); printed as DQKGGZZZZWDYKD{allyl-E}; also: X6-X9: Gly or Ser mixture) [FLAG cyclization tag, fragmented FLAG-based tag on microarray, Z = 3:1 mixture of Gly:Ser, cyclized via allyl-E]", "values": [{"measurement": "median fluorescence", "setting": "[5]", "result": "higher than that of the fragmented control peptides"}]}]}
